A value given as a limit tells only on which side of the number the result lay.

What is called IC50 is the concentration that gives 50% inhibition. A higher IC50 goes with weaker potency.

In the test the target is FAP (Homo sapiens (Human), UniProt Q12884). The test can be described thus: FAP protease inhibition assay (FAM-labeled substrate peptide, microfluidic electrophoresis). It is filed as biochemical. The note with it: enzyme 0.5 nM, substrate peptide 1 uM, 15 minutes pre-incubation, three hours for human FAP. As for the experimental part: Protease reactions were assembled in 384 well plates (Greiner) in a total volume of 20 uL as described below.
Sequence of FAP (Q12884 whole entry): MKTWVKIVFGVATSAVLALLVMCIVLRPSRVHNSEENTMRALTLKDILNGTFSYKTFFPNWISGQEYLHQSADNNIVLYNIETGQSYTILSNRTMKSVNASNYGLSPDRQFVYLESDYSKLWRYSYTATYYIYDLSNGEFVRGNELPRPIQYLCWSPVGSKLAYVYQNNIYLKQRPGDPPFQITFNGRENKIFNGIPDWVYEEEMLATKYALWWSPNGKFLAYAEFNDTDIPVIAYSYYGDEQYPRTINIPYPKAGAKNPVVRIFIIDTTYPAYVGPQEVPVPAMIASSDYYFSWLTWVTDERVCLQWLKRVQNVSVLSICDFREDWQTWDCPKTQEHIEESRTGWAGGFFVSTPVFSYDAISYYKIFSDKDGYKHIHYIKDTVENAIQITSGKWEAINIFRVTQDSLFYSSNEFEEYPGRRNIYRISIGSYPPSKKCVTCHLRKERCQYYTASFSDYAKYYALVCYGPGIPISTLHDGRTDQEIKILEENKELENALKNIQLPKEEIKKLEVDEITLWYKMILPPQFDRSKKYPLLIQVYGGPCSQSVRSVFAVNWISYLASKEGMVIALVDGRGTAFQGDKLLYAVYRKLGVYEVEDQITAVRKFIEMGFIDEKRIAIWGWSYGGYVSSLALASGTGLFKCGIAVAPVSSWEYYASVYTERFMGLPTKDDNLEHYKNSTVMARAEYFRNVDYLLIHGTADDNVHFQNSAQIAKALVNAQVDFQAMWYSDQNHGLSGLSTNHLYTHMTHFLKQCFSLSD
Recombinant proteins were pre-diluted in assay buffer comprising of 100 mM HEPES, pH 7.5, 0.1% BSA, 0.01% Triton X-100, 1 mM DTT, and dispensed into 384 well plate (10 uL per well). Test compounds were serially pre-diluted in DMSO and added to the assay wells by acoustic dispensing (Labcyte Echo 550). Control samples (0%-inhibition in the absence of inhibitor, DMSO only) and 100%-inhibition (in the absence of enzyme) were assembled in replicates of four and used to calculate the %-inhibition in the presence of compounds. Concentration of DMSO was equalized to 1% in all samples.
Compounds were pre-incubated with enzymes for 15 minutes. Human FAP was obtained from Enzo, catalogue number BML-SE409-0010. […] Final concentration of enzymes were 0.5 nM. Final concentration of substrate peptides was 1 uM.
The reactions were allowed to proceed at room temperature. Incubation time was three hours for human FAP, 0.5 hours for mouse FAP.
Terminated plates were analyzed using a microfluidic electrophoresis instrument (Caliper LabChip® 3000, Caliper Life Sciences/Perkin Elmer). A change in relative intensity of the peptide substrate and cleaved product was the parameter measured. Activity in each test sample was determined as the product to sum ratio (PSR):P/(S+P), where P is the peak height of the product, and S is the peak height of the substrate. Percent inhibition (Pinh) was determined using the following equation: Pinh=(PSR0% inh−PSRcompound)/(PSR0% inh−PSR100% inh)*100, in which: PSRcompound is the product/sum ratio in the presence of compound, PSR0% inh is the product/sum ratio in the absence of compound and the PSR100% inh is the product/sum ratio in the absence of the enzyme.
For the compound “2,2′,2″-(10-(8-(1-((4-((2-((R)-2-boronopyrrolidin-1-yl)-2-oxoethyl)carbamoyl)quinolin-7-yl)oxy)-2-oxo-6,9,12-trioxa-3-azapentadecanamido)-39-carboxy-48-(4-isobutylphenyl)-2,9,37,45-tetraoxo-13,16,19,22,25,28,31,34-octaoxa-3,10,38,44-tetraazaoctatetracontyl)-1,4,7,10-tetraazacyclo-dodecane-1,4,7-triyl)triacetic acid [RTX-1357R]”, the IC50 is less than 0.1 nM.
As to `CCCC(=O)NCCCC[C@H](NC(=O)[C@H](CCCCNC(=S)Nc1ccc(CC2CN(CC(=O)O)CCN(CC(=O)O)CCN2CC(=O)O)cc1)NC(=O)CCOCCOCCOCCNC(=O)COc1ccc2c(C(=O)NCC(=O)N3CCC[C@H]3C#N)ccnc2c1)C(=O)O` (some centres unmarked) [RTX-1317S], the IC50 is 0.1 to 0.5 nM.
For `CCCCCC(=O)NCCCC[C@H](NC(=O)[C@H](CCCCNC(=S)Nc1ccc(CC2CN(CC(=O)O)CCN(CC(=O)O)CCN2CC(=O)O)cc1)NC(=O)CCOCCOCCOCCNC(=O)COc1ccc2c(C(=O)NCC(=O)N3CCC[C@H]3C#N)ccnc2c1)C(=O)O` (some centres unmarked) [RTX-1318S] the value was less than 0.1 nM; for `CC(=O)NCCCC[C@H](NC(=O)[C@H](CCCCNC(=S)Nc1ccc(CC2CN(CC(=O)O)CCN(CC(=O)O)CCN2CC(=O)O)cc1)NC(=O)CCOCCOCCOCCNC(=O)COc1ccc2c(C(=O)NCC(=O)N3CCC[C@H]3B(O)O)ccnc2c1)C(=O)O` (some centres unmarked) [RTX-1319R], 0.1 to 0.5 nM; for `CC(=O)NCCCC[C@H](NC(=O)[C@H](CCCCNC(=O)c1ccc(F)c(C#N)c1)NC(=O)CCOCCOCCOCCNC(=O)COc1ccc2c(C(=O)NCC(=O)N3CCC[C@H]3C#N)ccnc2c1)C(=O)O` [RTX-1324S, (S)-2-[(S)-2-(3-{2-[2-(2-{2-[4-({2-[(S)-2-Cyano-1-pyrrolidinyl]-2-oxoethylamino}carbonyl)-7-quinolyloxy]acetylamino}ethoxy)ethoxy]ethoxy}propionylamino)-6-(3-cyano-4-fluorobenzoylamino)hexanoylamino]-6-acetylaminohexanoic Acid], less than 0.1 nM.
Take `CC(=O)NCCCC[C@H](NC(=O)[C@H](CCCCNC(=O)c1ccc(F)c(C(F)(F)F)c1)NC(=O)CCOCCOCCOCCNC(=O)COc1ccc2c(C(=O)NCC(=O)N3CCC[C@H]3C#N)ccnc2c1)C(=O)O` [RTX-1325S]: the IC50 lay in the range of 0.5 to 5 nM.
`COc1ccc2c(C(=O)NCC(=O)N3CCC[C@H]3C#N)ccnc2c1` [RTX-1326S, 7-Methoxy-quinoline-4-carboxylic Acid [2-((S)-2-cyano-pyrrolidin-1-yl)-2-oxo-ethyl]-amide]: the IC50 lay in the range of 0.5 to 5 nM.
In the case of `CC(=O)NCCCC[C@H](NC(=O)[C@H](CCCCNC(=O)CN1CCN(CC(=O)O)CCN(CC(=O)O)CC1)NC(=O)CCOCCOCCOCCNC(=O)COc1ccc2c(C(=O)NCC(=O)N3CCC[C@H]3C#N)ccnc2c1)C(=O)O` [RTX-1339S] it was 0.1 to 0.5 nM; in that of `CCCC(=O)NCCCC[C@H](NC(=O)[C@H](CCCCNC(=O)CN1CCN(CC(=O)O)CCN(CC(=O)O)CC1)NC(=O)CCOCCOCCOCCNC(=O)COc1ccc2c(C(=O)NCC(=O)N3CCC[C@H]3C#N)ccnc2c1)C(=O)O` [RTX-1340S], 0.1 to 0.5 nM.
In the case of `CCCCCCCC(=O)NCCCC[C@H](NC(=O)[C@H](CCCCNC(=O)CN1CCN(CC(=O)O)CCN(CC(=O)O)CCN(CC(=O)O)CC1)NC(=O)CCOCCOCCOCCNC(=O)COc1ccc2c(C(=O)NCC(=O)N3CCC[C@H]3C#N)ccnc2c1)C(=O)O` [RTX-1350S] it was less than 0.1 nM.
In the case of `CC(C)Cc1ccc(CCCC(=O)NCCCC[C@H](NC(=O)[C@H](CCCCNC(=O)CN2CCN(CC(=O)O)CCN(CC(=O)O)CCN(CC(=O)O)CC2)NC(=O)CCOCCOCCOCCNC(=O)COc2ccc3c(C(=O)NCC(=O)N4CCC[C@H]4C#N)ccnc3c2)C(=O)O)cc1` [RTX-1352S] it was less than 0.1 nM; in that of `CC(=O)NCCCC[C@H](NC(=O)[C@H](CCCCNC(=O)CN1CCN(CC(=O)O)CCN(CC(=O)O)CCN(CC(=O)O)CC1)NC(=O)CCOCCOCCOCCNC(=O)COc1ccc2c(C(=O)NCC(=O)N3CCC[C@H]3C#N)ccnc2c1)C(=O)O` [RTX-1353S], 0.1 to 0.5 nM.
As for `CC(C)Cc1ccc(CC(=O)NCCCC[C@H](NC(=O)[C@H](CCCCNC(=O)CN2CCN(CC(=O)O)CCN(CC(=O)O)CCN(CC(=O)O)CC2)NC(=O)CCOCCOCCOCCNC(=O)COc2ccc3c(C(=O)NCC(=O)N4CCC[C@H]4C#N)ccnc3c2)C(=O)O)cc1` [RTX-1354S], the IC50 was less than 0.1 nM.
In the case of `CCCCCCCC(=O)NCCCC[C@H](NC(=O)[C@H](CCCCNC(=O)CN1CCN(CC(=O)O)CCN(CC(=O)O)CCN(CC(=O)O)CC1)NC(=O)CCOCCOCCOCCNC(=O)COc1ccc2c(C(=O)NCC(=O)N3CCC[C@H]3B(O)O)ccnc2c1)C(=O)O` [RTX-1355R] it was 0.1 to 0.5 nM.
For `CC(C)Cc1ccc(CCCC(=O)NCCCC[C@H](NC(=O)[C@H](CCCCNC(=O)CN2CCN(CC(=O)O)CCN(CC(=O)O)CCN(CC(=O)O)CC2)NC(=O)CCOCCOCCOCCNC(=O)COc2ccc3c(C(=O)NCC(=O)N4CCC[C@H]4B(O)O)ccnc3c2)C(=O)O)cc1` [RTX-1356R] the value was 0.1 to 0.5 nM.
Compound `CC(C)Cc1ccc(CC(=O)NCCCC[C@H](NC(=O)[C@H](CCCCNC(=O)CN2CCN(CC(=O)O)CCN(CC(=O)O)CCN(CC(=O)O)CC2)NC(=O)CCOCCOCCOCCNC(=O)COc2ccc3c(C(=O)NCC(=O)N4CCC[C@H]4B(O)O)ccnc3c2)C(=O)O)cc1` [RTX-1359R, 2-[2-(3-{2-[2-(2-{2-[4-({2-[(R)-2-(1,2-dihydroxaboro)-1-pyrrolidinyl]-2-oxoethylamino}-carbonyl)-7-quinolyloxy]acetylamino}ethoxy)ethoxy]ethoxy}propionylamino)-6-{2-[4,7,10-tris(carb-oxymethyl)-1,4,7,10-tetraaza-1-cyclododecyl]acetylamino}hexanoylamino]-6-[2-(p-isobutylphenyl)-acetylamino]hexanoic Acid] registered an IC50 of less than 0.1 nM.
In the case of `CCCCCC(=O)NCCCC[C@H](NC(=O)[C@H](CCCCNC(=O)CN1CCN(CC(=O)O)CCN(CC(=O)O)CCN(CC(=O)O)CC1)NC(=O)CCOCCOCCOCCNC(=O)COc1ccc2c(C(=O)NCC(=O)N3CCC[C@H]3C#N)ccnc2c1)C(=O)O` [RTX-1360S] it was less than 0.1 nM; in that of `CCCCCC(=O)NCCCC[C@H](NC(=O)[C@H](CCCCNC(=O)CN1CCN(CC(=O)O)CCN(CC(=O)O)CCN(CC(=O)O)CC1)NC(=O)CCOCCOCCOCCNC(=O)COc1ccc2c(C(=O)NCC(=O)N3CCC[C@H]3B(O)O)ccnc2c1)C(=O)O` [RTX-1361R], less than 0.1 nM.
As for `CCCCCC(=O)NCCCC[C@H](NC(=O)[C@H](CCCCNC(=O)CN1CCN(CC(=O)O)CCN(CC(=O)O)CC1)NC(=O)CCOCCOCCOCCNC(=O)COc1ccc2c(C(=O)NCC(=O)N3CCC[C@H]3C#N)ccnc2c1)C(=O)O` [RTX-1363S, 2,2′-(7-((S)-17-(((S)-1-carboxy-5-hexanamidopentyl)carbamoyl)-1-((4-((2-((S)-2-cyanopyrrolidin-1-yl)-2-oxoethyl)carbamoyl)quinolin-7-yl)oxy)-2,15,23-trioxo-6,9,12-trioxa-3,16,22-triazatetracosan-24-yl)-1,4,7-triazonane-1,4-diyl)diacetic Acid], the half-maximal inhibitory concentration (IC50) was less than 0.1 nM.
For `CCCCCC(=O)NCCCC[C@H](NC(=O)[C@H](CCCCNC(=O)CN1CCN2CCN(CC1)CC(=O)[O][Cu][O]C(=O)C2)NC(=O)CCOCCOCCOCCNC(=O)COc1ccc2c(C(=O)NCC(=O)N3CCC[C@H]3C#N)ccnc2c1)C(=O)O` [RTX-1363S-Cu] the value was less than 0.1 nM.

The values above are taken from patent publication US20260034252A1, “FIBROBLAST ACTIVATION PROTEIN-TARGETED COMPOSITIONS AND METHODS OF USE THEREOF” (Ratio Therapeutics, Inc., priority 2022, published 2026).
